Values quoted from earlier work as cited in PMC9128828 (Nature medicine, 2021).

Test system: mouse xenograft models
Details: xenograft models; cited from earlier work

In the case of CS(=O)(=O)c1ccc(Oc2cc(F)cc(C#N)c2)c2c1[C@H](O)C(F)(F)C2 [MK-3795, reference compound], the Tumor regression is listed as “significant tumor regression”.
